Measurements reported in the supplement of paper PMC11208160.

assay: recombinant UMI read abundance after kanamycin selection (control-corrected) (log10(CPM+1)); higher = more efficient recombination; extreme values may be limits of the assay; sequences stand for … in AGTGCAGAGAAAATCGGCCAGTTTTCTCTGCCTGCAGTCCGCATGCCGTGGGACCCCTTGGGTTCTAACCTGTTGCCTAGATTTATGCAGCGGACTGCCTTTCTCCCAAAGTGATAAACCGG…AGGTTGGTTTCACT; site = the 11-nt donor
Description: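 Pooled E. coli donor-specificity screen for the IS621 bridge recombinase. Each library member carries a reprogrammed 11-nt donor and a full-length LE bridge RNA expressed in cis from the natural promoter, with a paired donor-binding loop (8-nt LDG + 4-nt RDG) and a target-binding loop fixed to T5. It is co-electroporated with a T5 target plasmid; recombinase is induced with 0.07 mM IPTG and recombinants are selected on kanamycin. UMIs are counted as CPM, averaged over two biological replicates and corrected by the unselected control. Molecule = full bridge RNA written as DNA, built from the T5 scaffold: LDG = donor specificity nt 1-8, RDG = reverse complement of nt 8-11.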
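Note: IS621 bridge recombinase in Escherichia coli cells against a fixed T5 target plasmid.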

| Sequence | recombinant UMI read abundance (log10) |
| --- | --- |
| AATCATACATGGACCGGTTTTCCCGGTAATCCGTATTTGGT (site AATCATACTAC) | 0.556 |
| AATCTCACATGGACCGGTTTTCCCGGTAATCCGTATTTGCT (site AATCTCACTAG) | 1.64 |
| AATCTCCCATGGACCGGTTTTCCCGGTAATCCGTATTTGCT (site AATCTCCCTAG) | 0.736 |
| AATGAGTCATGGACCGGTTTTCCCGGTAATCCGTATTTGAC (site AATGAGTCTGT) | 3.25 |
| AATGAGTCATGGACCGGTTTTCCCGGTAATCCGTATTTGAC (site AATGCGTCTGT) | 0 |
| AATGAGTCATGGACCGGTTTTCCCGGTAATCCGTATTTGAC (site AATGGGTCTGT) | 0 |
| AATGAGTCATGGACCGGTTTTCCCGGTAATCCGTATTTGAC (site AATGTGTCTGT) | 0.822 |
| AATGAGTCATGGACCGGTTTTCCCGGTAATCCGTATTTGAT (site AATGAGTCTAT) | 2.52 |
| AATGATCCATGGACCGGTTTTCCCGGTAATCCGTATTTGCG (site AATGATCCTCG) | 0.677 |
| AATGGCCCATGGACCGGTTTTCCCGGTAATCCGTATTTGTA (site AATGGCCCTTA) | 0.0128 |
| AATGTAACATGGACCGGTTTTCCCGGTAATCCGTATTTGAT (site AATGTAACTAA) | 0.00583 |
| AATGTAACATGGACCGGTTTTCCCGGTAATCCGTATTTGAT (site AATGTAACTAC) | 0.00741 |
| AATGTAACATGGACCGGTTTTCCCGGTAATCCGTATTTGAT (site AATGTAACTAG) | 0.00602 |
| AATGTAACATGGACCGGTTTTCCCGGTAATCCGTATTTGAT (site AATGTAACTAT) | 2.15 |
| AATGTAACATGGACCGGTTTTCCCGGTAATCCGTATTTGCA (site AATGTAACTAG) | 0 |
| AATGTAACATGGACCGGTTTTCCCGGTAATCCGTATTTGCA (site AATGTAACTCG) | 0.0207 |
| AATGTAACATGGACCGGTTTTCCCGGTAATCCGTATTTGCA (site AATGTAACTGG) | 0 |
| AATGTAACATGGACCGGTTTTCCCGGTAATCCGTATTTGCA (site AATGTAACTTG) | 1.78 |
| AATGTAACATGGACCGGTTTTCCCGGTAATCCGTATTTGCC (site AATGTAACTAG) | 0 |
| AATGTAACATGGACCGGTTTTCCCGGTAATCCGTATTTGCC (site AATGTAACTCG) | 0 |
| AATGTAACATGGACCGGTTTTCCCGGTAATCCGTATTTGCC (site AATGTAACTGG) | 2.15 |
| AATGTAACATGGACCGGTTTTCCCGGTAATCCGTATTTGCC (site AATGTAACTTG) | 1.34 |
| AATGTAACATGGACCGGTTTTCCCGGTAATCCGTATTTGGT (site AATGTAACTAA) | 0.557 |
| AATGTAACATGGACCGGTTTTCCCGGTAATCCGTATTTGGT (site AATGTAACTAC) | 1.36 |

| Sequence | recombinant UMI read abundance (log10) |
| --- | --- |
| AATGTAACATGGACCGGTTTTCCCGGTAATCCGTATTTGGT (site AATGTAACTAG) | 0 |
| AATGTAACATGGACCGGTTTTCCCGGTAATCCGTATTTGGT (site AATGTAACTAT) | 0.468 |
| AATGTAGCATGGACCGGTTTTCCCGGTAATCCGTATTTGCT (site AATGTAACTAG) | 0 |
| AATGTAGCATGGACCGGTTTTCCCGGTAATCCGTATTTGCT (site AATGTACCTAG) | 0 |
| AATGTAGCATGGACCGGTTTTCCCGGTAATCCGTATTTGCT (site AATGTAGCTAG) | 1.55 |
| AATGTAGCATGGACCGGTTTTCCCGGTAATCCGTATTTGCT (site AATGTATCTAG) | 0.516 |
| AATGTATCATGGACCGGTTTTCCCGGTAATCCGTATTTGAC (site AATGTATCTGT) | 3.11 |
| AATGTATCATGGACCGGTTTTCCCGGTAATCCGTATTTGAC (site AATGTCTCTGT) | 0 |
| AATGTATCATGGACCGGTTTTCCCGGTAATCCGTATTTGAC (site AATGTGTCTGT) | 0 |
| AATGTATCATGGACCGGTTTTCCCGGTAATCCGTATTTGAC (site AATGTTTCTGT) | 0 |
| AATGTCGCATGGACCGGTTTTCCCGGTAATCCGTATTTGGT (site AATGTCGCTAC) | 1.19 |
| AATGTGCCATGGACCGGTTTTCCCGGTAATCCGTATTTGAC (site AATGTGACTGT) | 0 |
| AATGTGCCATGGACCGGTTTTCCCGGTAATCCGTATTTGAC (site AATGTGCCTGT) | 0 |
| AATGTGCCATGGACCGGTTTTCCCGGTAATCCGTATTTGAC (site AATGTGGCTGT) | 0 |
| AATGTGCCATGGACCGGTTTTCCCGGTAATCCGTATTTGAC (site AATGTGTCTGT) | 0 |
| AATGTGCCATGGACCGGTTTTCCCGGTAATCCGTATTTGCT (site AATGTGCCTAG) | 0.0116 |
| AATGTGTCATGGACCGGTTTTCCCGGTAATCCGTATTTGCC (site AATGTGTCTGA) | 0 |
| AATGTGTCATGGACCGGTTTTCCCGGTAATCCGTATTTGCC (site AATGTGTCTGC) | 0 |
| AATGTGTCATGGACCGGTTTTCCCGGTAATCCGTATTTGCC (site AATGTGTCTGG) | 2.81 |
| AATGTGTCATGGACCGGTTTTCCCGGTAATCCGTATTTGCC (site AATGTGTCTGT) | 2.16 |
| AATGTTACATGGACCGGTTTTCCCGGTAATCCGTATTTGCT (site AATGTAACTAG) | 1.05 |
| AATGTTACATGGACCGGTTTTCCCGGTAATCCGTATTTGCT (site AATGTCACTAG) | 1.13 |
| AATGTTACATGGACCGGTTTTCCCGGTAATCCGTATTTGCT (site AATGTGACTAG) | 0.00476 |
| AATGTTACATGGACCGGTTTTCCCGGTAATCCGTATTTGCT (site AATGTTACTAG) | 2.3 |

| Sequence | recombinant UMI read abundance (log10) |
| --- | --- |
| AATTAAGCATGGACCGGTTTTCCCGGTAATCCGTATTTGGA (site AATTAAGCTTC) | 0.894 |
| AATTAAGCATGGACCGGTTTTCCCGGTAATCCGTATTTGGA (site AATTACGCTTC) | 0.395 |
| AATTAAGCATGGACCGGTTTTCCCGGTAATCCGTATTTGGA (site AATTAGGCTTC) | 0.648 |
| AATTAAGCATGGACCGGTTTTCCCGGTAATCCGTATTTGGA (site AATTATGCTTC) | 0.412 |
| AATTATCCATGGACCGGTTTTCCCGGTAATCCGTATTTGCT (site AATTATCCTAG) | 0.673 |
| AATTATCCATGGACCGGTTTTCCCGGTAATCCGTATTTGCT (site CATTATCCTAG) | 0.041 |
| AATTATCCATGGACCGGTTTTCCCGGTAATCCGTATTTGCT (site GATTATCCTAG) | 0.232 |
| AATTATCCATGGACCGGTTTTCCCGGTAATCCGTATTTGCT (site TATTATCCTAG) | 0.201 |
| AATTATGCATGGACCGGTTTTCCCGGTAATCCGTATTTGGC (site AATTATGCTAC) | 0.00687 |
| AATTATGCATGGACCGGTTTTCCCGGTAATCCGTATTTGGC (site AATTATGCTCC) | 0.0199 |
| AATTATGCATGGACCGGTTTTCCCGGTAATCCGTATTTGGC (site AATTATGCTGC) | 1.33 |
| AATTATGCATGGACCGGTTTTCCCGGTAATCCGTATTTGGC (site AATTATGCTTC) | 0.332 |
| AATTCTTCATGGACCGGTTTTCCCGGTAATCCGTATTTGTA (site AATTCTTCTTA) | 1.04 |
| AATTTACCATGGACCGGTTTTCCCGGTAATCCGTATTTGGC (site AATTTACCTGC) | 0 |
| ACAAAGACATGGACCGGTTTTCCCGGTAATCCGTATTTGAG (site ACAAAGACTCT) | 2.49 |
| ACAAGTTCATGGACCGGTTTTCCCGGTAATCCGTATTTGTG (site ACAAGTTCTCA) | 2.42 |
| ACAATAACATGGACCGGTTTTCCCGGTAATCCGTATTTGCA (site ACAATAACTTG) | 2.65 |
| ACAATAACATGGACCGGTTTTCCCGGTAATCCGTATTTGCA (site ACAGTATCTTG) | 1.03 |
| ACAATATCATGGACCGGTTTTCCCGGTAATCCGTATTTGGA (site ACAATATCTTC) | 2.07 |
| ACAATATCATGGACCGGTTTTCCCGGTAATCCGTATTTGGA (site ACAGTATCTTG) | 0 |
| ACACACCCATGGACCGGTTTTCCCGGTAATCCGTATTTGAC (site ACACAACCTGT) | 0 |
| ACACACCCATGGACCGGTTTTCCCGGTAATCCGTATTTGAC (site ACACACCCTGT) | 0.957 |
| ACACACCCATGGACCGGTTTTCCCGGTAATCCGTATTTGAC (site ACACAGCCTGT) | 0 |
| ACACACCCATGGACCGGTTTTCCCGGTAATCCGTATTTGAC (site ACACATCCTGT) | 0.471 |
